Experimental data reported in US9782368B2, “Use of N,N-bis-2-mercaptoethyl isophthalamide” (EMERAMED LIMITED, priority 2014, dated 2017).

Assays:
[1] = Ascorbate depletion assay, CuSO4-sponsored oxidation, recycling of DHA; conditions: CuSO4 model, 200 μM added at 60 minutes
Description: (§1) The kinetics of ascorbate oxidation, sponsored by both 1 μM 9,10-PQ and 2 μM copper sulphate (CuSO4), was examined using the ascorbate depletion assay (Kelly et al, Res. Rep. Health Eff. Inst., 163, 3 (2011). 9,10-PQ was employed so that the action of NBMI could be examined in isolation of its chelation properties.
(§2) All experiments were performed in triplicate in UV 96 well flat-bottomed plates (Greiner bio-one) at a final volume of 200 μL. Exposures were initiated by the addition of 20 μL of a concentrated stock of ascorbate (2 mM) into each well containing 160 μL of Chelex-100 resin treated water (containing 10% DMSO), plus either 10 μL of water, CuSO4 stock solution at 4 mM or 9,10-PQ stock solution at 2 mM, and 10 μL of NMBI (4 mM and […]).
(§3) All solutions were prepared in Chelex-100 resin treated water (containing 10% DMSO). This yielded final concentrations in the wells of […], 2 μM CuSO4, or 1 μM 9,10-PQ and between 10 and 200 μM of NBMI.
(§4) Immediately prior to the addition of the ascorbate to each assay well, the plate was pre-incubated for 10 minutes at 37° C. in a plate reader (Spectra Max 190). During the exposure, the plate was maintained at this temperature. After addition of ascorbate, the concentration remaining in each well was monitored every 2 minutes for a period of two hours by measuring the absorbance at 265 nm. The ascorbate concentration was determined with reference to a standard curve, with the rate of ascorbate oxidation determined by performing a linear regression through the initial part of a concentration verses time plot using Microcal Software Limited's OriginLab (version 5.0). This was performed for each of the triplicates and the rate of ascorbate depletion was finally expressed as mean mol s 1×10^−9 depletion of ascorbate±standard deviation.
(§5) For the experiments in which the impact of adding NBMI to the ascorbate was measured, CuSO4 and 9,10-PQ depletion assays were examined later in the time course. The plates were ran with 190 μL only for the first 55-60 minutes, after which they were removed from the plate reader and 10 μL of either the NMBI or the known reducing agent, DTT stock solution, or water was added to each well. The plate was then returned to the plate reader and the absorbance at 265 nm monitored for a further 60 minutes.
(§6) The immediate increase in the measured ascorbate concentrations was determined and is referred to as the ‘jump’, as a measure of immediate recycling capacity. The sustained ‘increase’ over the remaining 60 minutes of the incubation was also determined.

[2] = Ascorbate depletion assay, 9,10-PQ-sponsored oxidation, recycling of DHA; conditions: 9,10-PQ model, 200 μM added at 60 minutes
Description: as §1, §2, §3, §4, §5, §6

[3] = tested on: IL-6 and IL-8 secretion in A549 cells; assay: Particle-induced secretion of pro-inflammatory cytokines (ELISA) in A549 cells; type: cell-based; conditions: pre-incubation 5 mM NAC (positive control); cell line not specified (A549 and BEAS-2B tested)
Description: Secretion of the pro-inflammatory cytokines interleukin (IL)-6, IL-8 (as well as GM-CSF and MCP-1) into cell media in response to particle exposure was measured in A549 and BEAS-2B cells using the following method.
Lung epithelial cells were seeded at 5×10^4 in 24-well plates. After pre-incubation with NBMI, the anti-oxidant compound, N-acetyl-L-cysteine (NAC), which was used as a positive control, or vehicle, for 3 hours the medium was removed.
Fresh media containing various particles (as below) in different concentrations was in a total volume of 0.5 ml for an additional 24 hours. The supernatants were then separated from the cells by centrifugation.
IL-8, IL-6, GM-CSF and MCP-1 were measured in the cell free fluid using the DuoSet ELISA Development kit (R&D Systems, Abingdon, UK) according to manufacturer's protocol.
Exposure to medium only served as negative control. Each experiment was performed twice with 4 replicates.
The effect of pre-incubation with 50 μM NBMI on particle-induced cytokine formation was tested at various concentrations of relevant particles.

Row | Compound | immediate 'jump' in ascorbate concentration [1] [µM] | sustained 'increase' in ascorbate over remaining 60 minutes [1] [µM] | immediate rebound increase in ascorbate [2] [µM] | whether recovery of ascorbate was sustained [2] | reduction of secretion of inflammatory cytokines [3]
1 | O[C@H](CS)[C@H](O)CS (racemic) [DTT, dithiothreitol, reference compound] | 7.93 ± 6.58 | 10.79 ± 2.45 | 5.1 | not sustained | –
2 | CC(=O)N[C@@H](CS)C(=O)O [NAC, N-acetyl-L-cysteine, reference compound] | – | – | – | – | effective in reducing the secretion of inflammatory cytokines
